Measurements: ChEMBL document CHEMBL1201862, “PubChem BioAssay data set” (2004)
Active and inactive are the calls of the source.

Tests used:
HEK293 [1] = assay: cytotoxicity in HEK293T NF-kB-Luc cells, SAR follow-up, cytotoxicity control for NF-kB activator project, cell-based, resazurin fluorescence (AID 493251); type: functional; settings: Homo sapiens
Jurkat [2] = assay: SAR Analysis of small molecule inhibitors of T-cell specific antigen receptor-induced NF-kB activation in a Jurkat cell line using a luminescence assay - Set 2. [Related pubchem assays (depositor defined):AID435003, AID435012, AID465]; type: functional, cell-based; settings: Homo sapiens
HEK293 [3] = assay: SAR Analysis of small molecule inhibitors of T-cell specific antigen receptor-induced NF-kB activation in a HEK-293T cell line using a luminescence assay - Set 2. [Related pubchem assays (depositor defined):AID435003, AID435012, AID489026]; type: functional, cell-based; settings: Homo sapiens
HEK293 [4] = assay: NOD1 signaling inhibitors, primary screen, cell-based, luminescence, uHTS (AID 1578); type: functional; settings: Homo sapiens
HEK293 [5] = assay: cells; type: functional, cell-based; settings: Homo sapiens
HEK293 [6] = assay: cells; type: functional, cell-based; settings: Homo sapiens; remark: listed apart in the source
HEK293 [7] = assay: NOD2 signaling inhibitors in MDP-stimulated cells, cell-based, uHTS, luminescence (AID 2001); type: functional; settings: Homo sapiens
[8] = growth suppression of PTEN-null colon cells, dose response, cell-based, HCT116 PTEN knockout (AID 1047); type: functional;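 further: HCT116 colon tumor cells with PTEN knocked out; cells exposed to compound for 60 hours before readout; potency for loss of cell viability measured by luminescence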
[9] = growth suppression of beta-catenin-knockout colon cells, dose response, cell-based, HCT116, human colon tumor (AID 1045); type: functional;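 further: HCT116 colon tumor cells with beta catenin knocked out; cells exposed to compound for 60 hours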
Tumor necrosis factor = Tumor necrosis factor (Homo sapiens, UniProt P01375); assay: TNFa-triggered NF-kB activation inhibitors, SAR follow-up, cell-based, revised (AID 2337); type: functional
[10] = biological target: Nucleotide-binding oligomerization domain-containing protein 1 (Homo sapiens, UniProt Q9Y239); assay: NOD1 signaling inhibitors, SAR follow-up, revised (AID 2333); type: functional
[11] = biological target: Nucleotide-binding oligomerization domain-containing protein 2 (Homo sapiens, UniProt Q9HC29); assay: PubChem AID 2334; type: functional
HEK293 [12] = assay: cells; settings: Homo sapiens
[13] = biological target: G-protein coupled receptor 55 (Homo sapiens, UniProt Q9Y2T6); assay: GPR55 antagonists, SAR follow-up, counter-screen for GPR35 antagonist project, imaging, image-based (AID 2397); type: functional
[14] = biological target: T1, Tyrosine-protein phosphatase non-receptor type 7 (Homo sapiens, UniProt P35236); type: functional
T1 sequence (P35236 whole entry): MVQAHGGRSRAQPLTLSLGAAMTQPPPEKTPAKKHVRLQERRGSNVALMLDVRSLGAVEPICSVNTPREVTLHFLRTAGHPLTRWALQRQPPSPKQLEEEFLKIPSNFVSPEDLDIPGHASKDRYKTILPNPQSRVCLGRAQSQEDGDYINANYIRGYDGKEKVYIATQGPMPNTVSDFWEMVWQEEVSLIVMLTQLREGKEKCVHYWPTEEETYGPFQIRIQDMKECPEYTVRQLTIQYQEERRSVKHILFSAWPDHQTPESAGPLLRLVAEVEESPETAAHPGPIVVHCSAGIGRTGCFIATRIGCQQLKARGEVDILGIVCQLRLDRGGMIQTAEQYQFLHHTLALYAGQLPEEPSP

[15] = biological target: T2, Tyrosine-protein phosphatase non-receptor type 22 (Homo sapiens, UniProt Q9Y2R2); type: functional
T2 sequence (Q9Y2R2 whole entry): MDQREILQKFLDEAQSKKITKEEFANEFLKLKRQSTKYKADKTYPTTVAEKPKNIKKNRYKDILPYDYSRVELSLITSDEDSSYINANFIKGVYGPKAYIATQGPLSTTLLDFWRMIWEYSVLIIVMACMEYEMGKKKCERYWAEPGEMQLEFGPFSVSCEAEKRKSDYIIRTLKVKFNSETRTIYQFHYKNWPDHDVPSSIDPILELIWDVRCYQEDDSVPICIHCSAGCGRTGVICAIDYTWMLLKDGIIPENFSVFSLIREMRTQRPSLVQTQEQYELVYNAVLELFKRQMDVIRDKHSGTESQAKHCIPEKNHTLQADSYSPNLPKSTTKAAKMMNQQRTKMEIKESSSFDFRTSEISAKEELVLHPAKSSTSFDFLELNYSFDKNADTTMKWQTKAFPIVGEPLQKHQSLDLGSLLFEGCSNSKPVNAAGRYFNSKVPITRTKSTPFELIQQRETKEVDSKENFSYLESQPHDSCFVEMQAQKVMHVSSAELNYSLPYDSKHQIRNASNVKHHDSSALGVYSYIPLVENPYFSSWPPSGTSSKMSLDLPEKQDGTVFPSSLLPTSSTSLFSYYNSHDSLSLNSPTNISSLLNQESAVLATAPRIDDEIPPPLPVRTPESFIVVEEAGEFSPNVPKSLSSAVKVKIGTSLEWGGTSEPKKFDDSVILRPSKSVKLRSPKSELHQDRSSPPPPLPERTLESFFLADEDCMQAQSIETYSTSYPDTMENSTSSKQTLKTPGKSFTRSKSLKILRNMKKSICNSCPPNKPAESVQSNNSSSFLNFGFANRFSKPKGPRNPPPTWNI

[16] = biological target: T2, Tyrosine-protein phosphatase non-receptor type 22; type: functional; remark: listed apart in the source
[17] = tested on: Streptococcus sp. 'group A'; assay: growth inhibition of control SK(-) GAS strain, dose response, counter-screen for streptokinase expression inhibitor project, luminescence, kanamycin, BacTiterGlo, confirmation (AID 1900); type: functional, organism-based
Streptococcus = assay: Group A Streptococcus viability loss, dose response, counter-screen for streptokinase expression inhibitor project, luminescence, BacTiterGlo (AID 1915); type: functional, organism-based;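 further: potency for reduction of bacterial viability or growth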
ORF 73 = ORF 73 (Human herpesvirus 8, UniProt O40947); assay: inhibitors of C-LANA binding to LBS DNA, dose response, biochemical, fluorescence polarization, cherry-picked samples (AID 504725); set-up: species or system Human gammaherpesvirus 8;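 further: fluorescence polarization of a labeled DNA duplex reporting LANA DNA binding; potency is for inhibitors that block LANA binding to the DNA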
[18] = biological target: T3, Apoptotic protease-activating factor 1 (Homo sapiens, UniProt O14727); assay: activation of Apaf-1 mediated apoptosis – fluorescent, uHTS hits, dose response (AID 588554); type: functional
T3 sequence (O14727 whole entry): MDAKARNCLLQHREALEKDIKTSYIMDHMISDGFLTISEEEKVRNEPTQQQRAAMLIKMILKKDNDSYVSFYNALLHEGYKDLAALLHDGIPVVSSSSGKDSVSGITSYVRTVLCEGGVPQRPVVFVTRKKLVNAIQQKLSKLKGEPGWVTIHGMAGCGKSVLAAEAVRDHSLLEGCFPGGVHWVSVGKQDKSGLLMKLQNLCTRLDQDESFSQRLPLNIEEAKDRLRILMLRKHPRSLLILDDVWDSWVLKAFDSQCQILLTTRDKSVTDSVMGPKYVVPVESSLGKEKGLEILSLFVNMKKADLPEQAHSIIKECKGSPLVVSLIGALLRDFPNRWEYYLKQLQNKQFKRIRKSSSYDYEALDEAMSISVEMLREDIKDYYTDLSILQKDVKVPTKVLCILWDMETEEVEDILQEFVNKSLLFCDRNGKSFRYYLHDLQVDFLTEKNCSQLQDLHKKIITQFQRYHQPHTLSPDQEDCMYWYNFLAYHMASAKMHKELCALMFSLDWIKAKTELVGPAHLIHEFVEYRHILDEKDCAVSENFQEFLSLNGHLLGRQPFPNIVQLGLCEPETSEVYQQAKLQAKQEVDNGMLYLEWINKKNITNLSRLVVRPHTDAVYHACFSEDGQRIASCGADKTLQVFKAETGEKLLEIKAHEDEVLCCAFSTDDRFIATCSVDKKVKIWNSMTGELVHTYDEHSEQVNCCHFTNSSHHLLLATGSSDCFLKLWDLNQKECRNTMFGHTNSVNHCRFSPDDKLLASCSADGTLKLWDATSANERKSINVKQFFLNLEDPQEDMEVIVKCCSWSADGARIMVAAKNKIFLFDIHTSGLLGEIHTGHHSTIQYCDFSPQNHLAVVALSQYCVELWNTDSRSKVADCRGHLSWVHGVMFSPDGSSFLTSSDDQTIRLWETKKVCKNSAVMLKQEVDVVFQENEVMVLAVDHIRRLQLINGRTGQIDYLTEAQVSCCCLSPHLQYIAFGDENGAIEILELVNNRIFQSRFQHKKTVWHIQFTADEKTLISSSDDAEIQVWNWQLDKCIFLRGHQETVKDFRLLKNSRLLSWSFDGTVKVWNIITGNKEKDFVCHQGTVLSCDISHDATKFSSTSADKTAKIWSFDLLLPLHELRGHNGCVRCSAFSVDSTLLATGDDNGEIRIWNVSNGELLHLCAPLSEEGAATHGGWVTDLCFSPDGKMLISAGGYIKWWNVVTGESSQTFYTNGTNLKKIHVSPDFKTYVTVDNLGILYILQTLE

[19] = biological target: 26S proteasome non-ATPase regulatory subunit 14 (Homo sapiens, UniProt O00487); assay: inhibition of proteasome subunit RPN11 – biochemical, fluorescence polarization, uHTS hits, confirmation (AID 602368); type: functional
[20] = biological target: 72 kDa type IV collagenase (Homo sapiens, UniProt P08253); assay: Dose Response validation of uHTS RPN11 inhibitor hits using a MMP-2 Fluorescence assay.; type: functional
Prothrombin = Prothrombin (Bos taurus, UniProt P00735); assay: thrombin inhibition, dose response, biochemical, fluorescence polarization, uHTS hits (AID 602369); type: functional
[21] = biological target: T4, Probable nicotinate-nucleotide adenylyltransferase (Staphylococcus aureus (strain N315), UniProt P65502); type: functional, Staphylococcus aureus subsp. aureus N315;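 on IC50 Mean: confirmatory dose-response retesting of NadD inhibitor hits first found in an ultra-high-throughput screen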
[22] = biological target: T4, Probable nicotinate-nucleotide adenylyltransferase; type: functional, Staphylococcus aureus subsp. aureus N315; settings: read-out: IC50_Mean
Jurkat [23] = assay: SAR Analysis of small molecule inhibitors of […] specific antigen receptor-induced NF-kB activation in a Jurkat cell line using a luminescence assay - Set 3. [Related pubchem assays (depositor defined):AID435022, AID435025, AID465]; type: functional, cell-based; settings: Homo sapiens
HEK293 [24] = assay: SAR Analysis of small molecule inhibitors of B-cell specific antigen receptor-induced NF-kB activation in a HEK-293T cell line using a luminescence assay - Set 2. [Related pubchem assays (depositor defined):AID435022, AID435025, AID489021]; type: functional, cell-based; settings: Homo sapiens
[25] = biological target: Intestinal-type alkaline phosphatase (Mus musculus, UniProt P24822); assay: PubChem AID 488785; type: functional
[26] = biological target: T5, Alkaline phosphatase, tissue-nonspecific isozyme (Homo sapiens, UniProt P05186); assay: TNAP enzyme inhibition by screening hits, dose response, selectivity assay for mouse IAP inhibitor project, biochemical, human TNAP, uHTS hits (AID 488906); type: functional
T5 sequence (P05186 whole entry): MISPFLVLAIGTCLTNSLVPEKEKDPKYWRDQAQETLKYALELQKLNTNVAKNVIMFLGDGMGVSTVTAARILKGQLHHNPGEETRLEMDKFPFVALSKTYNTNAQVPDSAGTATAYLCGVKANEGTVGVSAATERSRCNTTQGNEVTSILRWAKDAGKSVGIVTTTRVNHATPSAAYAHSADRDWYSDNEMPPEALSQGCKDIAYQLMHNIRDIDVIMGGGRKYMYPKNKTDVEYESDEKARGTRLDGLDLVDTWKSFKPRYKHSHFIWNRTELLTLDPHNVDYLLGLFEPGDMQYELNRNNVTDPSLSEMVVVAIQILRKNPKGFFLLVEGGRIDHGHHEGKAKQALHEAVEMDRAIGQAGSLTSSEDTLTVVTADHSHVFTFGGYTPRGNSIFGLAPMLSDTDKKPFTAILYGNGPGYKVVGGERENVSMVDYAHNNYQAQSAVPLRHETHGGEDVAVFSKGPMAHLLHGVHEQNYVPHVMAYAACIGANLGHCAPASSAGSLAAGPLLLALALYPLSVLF

[27] = biological target: Intestinal-type alkaline phosphatase (Homo sapiens, UniProt P09923); assay: inhibition of human intestinal alkaline phosphatase – biochemical, dose response (AID 488876); type: functional
[28] = biological target: Lysine-specific demethylase 4C (Homo sapiens, UniProt Q9H3R0); assay: GASC-1 (JMJD2C) histone demethylase inhibitors, dose response, biochemical, DELFIA europium, cherry-picked samples (AID 488835); type: functional
Chain of Lysine-specific demethylase 4C (Q9H3R0 whole entry): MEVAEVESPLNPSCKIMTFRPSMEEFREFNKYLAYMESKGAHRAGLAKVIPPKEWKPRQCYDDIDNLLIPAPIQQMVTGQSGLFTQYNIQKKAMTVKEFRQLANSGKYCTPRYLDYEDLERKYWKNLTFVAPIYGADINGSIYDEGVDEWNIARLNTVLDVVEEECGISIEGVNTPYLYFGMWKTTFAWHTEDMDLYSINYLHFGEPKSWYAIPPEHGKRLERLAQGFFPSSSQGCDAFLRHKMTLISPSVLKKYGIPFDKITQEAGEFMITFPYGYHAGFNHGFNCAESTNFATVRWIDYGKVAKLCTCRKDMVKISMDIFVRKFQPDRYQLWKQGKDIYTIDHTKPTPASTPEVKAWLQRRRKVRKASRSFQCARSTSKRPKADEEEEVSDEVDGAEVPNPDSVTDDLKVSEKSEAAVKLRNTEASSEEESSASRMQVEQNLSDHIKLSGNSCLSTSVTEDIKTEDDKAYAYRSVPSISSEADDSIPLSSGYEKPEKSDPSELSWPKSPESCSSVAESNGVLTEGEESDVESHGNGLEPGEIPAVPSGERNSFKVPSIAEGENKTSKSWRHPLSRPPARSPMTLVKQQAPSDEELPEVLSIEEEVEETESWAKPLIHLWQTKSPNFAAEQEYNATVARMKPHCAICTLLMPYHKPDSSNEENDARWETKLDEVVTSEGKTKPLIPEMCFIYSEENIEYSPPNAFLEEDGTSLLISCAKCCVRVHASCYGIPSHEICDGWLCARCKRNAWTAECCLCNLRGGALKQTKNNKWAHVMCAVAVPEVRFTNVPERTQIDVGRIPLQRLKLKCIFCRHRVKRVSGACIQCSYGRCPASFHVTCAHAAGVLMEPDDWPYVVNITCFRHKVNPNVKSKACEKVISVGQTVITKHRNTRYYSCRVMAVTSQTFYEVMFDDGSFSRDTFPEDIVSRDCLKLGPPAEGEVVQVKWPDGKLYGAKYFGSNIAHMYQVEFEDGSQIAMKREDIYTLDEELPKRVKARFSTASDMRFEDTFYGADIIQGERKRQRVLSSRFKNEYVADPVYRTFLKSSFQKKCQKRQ

T4 sequence (P65502 whole entry): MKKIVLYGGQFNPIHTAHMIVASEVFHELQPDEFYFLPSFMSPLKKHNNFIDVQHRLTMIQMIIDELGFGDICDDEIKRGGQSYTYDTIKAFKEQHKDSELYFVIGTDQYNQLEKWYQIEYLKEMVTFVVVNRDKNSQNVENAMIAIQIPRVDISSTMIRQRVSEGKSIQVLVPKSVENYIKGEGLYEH
Chain of Nucleotide-binding oligomerization domain-containing protein 2 (Q9HC29 whole entry, the tested form may be a part): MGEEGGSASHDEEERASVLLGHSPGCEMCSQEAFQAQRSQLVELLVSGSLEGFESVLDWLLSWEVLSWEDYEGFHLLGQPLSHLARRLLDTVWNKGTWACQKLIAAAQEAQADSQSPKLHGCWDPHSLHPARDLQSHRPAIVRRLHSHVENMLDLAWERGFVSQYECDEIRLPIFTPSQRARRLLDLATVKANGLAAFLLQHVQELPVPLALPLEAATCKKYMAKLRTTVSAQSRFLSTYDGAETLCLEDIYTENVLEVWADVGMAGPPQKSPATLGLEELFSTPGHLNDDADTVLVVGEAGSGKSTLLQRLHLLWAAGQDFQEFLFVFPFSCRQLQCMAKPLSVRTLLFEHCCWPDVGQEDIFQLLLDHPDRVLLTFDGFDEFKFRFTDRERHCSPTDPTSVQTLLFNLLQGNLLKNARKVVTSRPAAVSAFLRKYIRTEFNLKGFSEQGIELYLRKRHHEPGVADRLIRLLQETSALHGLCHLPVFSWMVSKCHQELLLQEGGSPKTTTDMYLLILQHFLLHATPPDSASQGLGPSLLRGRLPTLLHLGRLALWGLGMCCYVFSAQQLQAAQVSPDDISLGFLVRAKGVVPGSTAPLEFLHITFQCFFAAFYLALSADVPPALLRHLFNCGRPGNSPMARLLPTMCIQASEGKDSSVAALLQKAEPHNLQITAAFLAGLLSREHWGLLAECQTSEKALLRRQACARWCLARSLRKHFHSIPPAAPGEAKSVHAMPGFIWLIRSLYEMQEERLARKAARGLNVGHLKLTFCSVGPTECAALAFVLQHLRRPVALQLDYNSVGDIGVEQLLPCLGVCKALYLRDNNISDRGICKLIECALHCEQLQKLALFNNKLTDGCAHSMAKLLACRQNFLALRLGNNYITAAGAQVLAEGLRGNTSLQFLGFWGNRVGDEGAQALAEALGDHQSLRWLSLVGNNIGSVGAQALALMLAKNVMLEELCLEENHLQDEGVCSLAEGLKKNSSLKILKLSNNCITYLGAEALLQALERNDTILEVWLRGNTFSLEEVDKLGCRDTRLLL
Chain of Tumor necrosis factor (P01375 whole entry, the tested form may be a part): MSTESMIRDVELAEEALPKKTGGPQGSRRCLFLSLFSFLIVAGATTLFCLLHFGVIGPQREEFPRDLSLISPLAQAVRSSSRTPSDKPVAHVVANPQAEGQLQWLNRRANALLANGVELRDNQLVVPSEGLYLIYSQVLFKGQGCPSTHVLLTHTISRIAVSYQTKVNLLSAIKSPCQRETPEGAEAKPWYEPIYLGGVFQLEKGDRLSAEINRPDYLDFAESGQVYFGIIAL
Chain of Intestinal-type alkaline phosphatase (Mus musculus, UniProt P24822) (P24822 whole entry): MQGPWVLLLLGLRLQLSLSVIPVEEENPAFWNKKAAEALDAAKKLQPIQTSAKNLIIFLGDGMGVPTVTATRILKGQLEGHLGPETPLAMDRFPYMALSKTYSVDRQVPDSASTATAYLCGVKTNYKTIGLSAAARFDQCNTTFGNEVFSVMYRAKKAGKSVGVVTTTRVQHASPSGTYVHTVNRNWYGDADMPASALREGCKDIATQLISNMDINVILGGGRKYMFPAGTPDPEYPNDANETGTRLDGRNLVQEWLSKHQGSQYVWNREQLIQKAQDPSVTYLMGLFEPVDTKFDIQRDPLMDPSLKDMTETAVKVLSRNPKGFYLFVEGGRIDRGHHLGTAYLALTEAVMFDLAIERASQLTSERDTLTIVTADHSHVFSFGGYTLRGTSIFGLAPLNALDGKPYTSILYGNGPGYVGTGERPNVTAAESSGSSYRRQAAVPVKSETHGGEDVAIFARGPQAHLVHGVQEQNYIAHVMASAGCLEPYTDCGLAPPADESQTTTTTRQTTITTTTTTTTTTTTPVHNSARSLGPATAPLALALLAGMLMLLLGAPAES
Chain of Nucleotide-binding oligomerization domain-containing protein 1 (Q9Y239 whole entry, the tested form may be a part): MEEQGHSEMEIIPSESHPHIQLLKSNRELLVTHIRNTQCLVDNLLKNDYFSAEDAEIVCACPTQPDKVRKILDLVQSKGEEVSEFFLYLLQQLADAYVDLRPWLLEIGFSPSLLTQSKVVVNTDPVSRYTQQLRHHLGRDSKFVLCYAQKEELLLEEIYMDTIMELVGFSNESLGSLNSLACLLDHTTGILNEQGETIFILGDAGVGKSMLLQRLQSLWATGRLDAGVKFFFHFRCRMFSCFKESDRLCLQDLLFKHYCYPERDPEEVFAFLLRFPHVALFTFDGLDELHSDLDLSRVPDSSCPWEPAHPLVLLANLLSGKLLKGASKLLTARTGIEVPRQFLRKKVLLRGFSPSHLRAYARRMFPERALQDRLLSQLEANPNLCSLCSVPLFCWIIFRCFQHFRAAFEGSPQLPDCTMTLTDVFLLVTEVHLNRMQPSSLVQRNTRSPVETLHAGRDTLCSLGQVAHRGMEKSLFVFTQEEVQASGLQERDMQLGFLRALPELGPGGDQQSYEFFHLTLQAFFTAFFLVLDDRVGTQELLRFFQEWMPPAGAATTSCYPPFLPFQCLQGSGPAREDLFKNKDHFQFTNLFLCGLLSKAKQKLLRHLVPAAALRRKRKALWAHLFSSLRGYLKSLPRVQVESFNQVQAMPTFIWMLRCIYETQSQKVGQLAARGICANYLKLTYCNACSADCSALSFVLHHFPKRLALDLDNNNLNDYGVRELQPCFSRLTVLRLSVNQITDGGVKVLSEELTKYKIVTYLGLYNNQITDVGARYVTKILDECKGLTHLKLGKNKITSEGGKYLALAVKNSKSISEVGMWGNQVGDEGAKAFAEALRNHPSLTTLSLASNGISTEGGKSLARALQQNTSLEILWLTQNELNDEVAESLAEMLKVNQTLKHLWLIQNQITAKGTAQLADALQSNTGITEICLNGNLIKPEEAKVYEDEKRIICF
Chain of 72 kDa type IV collagenase (P08253 whole entry): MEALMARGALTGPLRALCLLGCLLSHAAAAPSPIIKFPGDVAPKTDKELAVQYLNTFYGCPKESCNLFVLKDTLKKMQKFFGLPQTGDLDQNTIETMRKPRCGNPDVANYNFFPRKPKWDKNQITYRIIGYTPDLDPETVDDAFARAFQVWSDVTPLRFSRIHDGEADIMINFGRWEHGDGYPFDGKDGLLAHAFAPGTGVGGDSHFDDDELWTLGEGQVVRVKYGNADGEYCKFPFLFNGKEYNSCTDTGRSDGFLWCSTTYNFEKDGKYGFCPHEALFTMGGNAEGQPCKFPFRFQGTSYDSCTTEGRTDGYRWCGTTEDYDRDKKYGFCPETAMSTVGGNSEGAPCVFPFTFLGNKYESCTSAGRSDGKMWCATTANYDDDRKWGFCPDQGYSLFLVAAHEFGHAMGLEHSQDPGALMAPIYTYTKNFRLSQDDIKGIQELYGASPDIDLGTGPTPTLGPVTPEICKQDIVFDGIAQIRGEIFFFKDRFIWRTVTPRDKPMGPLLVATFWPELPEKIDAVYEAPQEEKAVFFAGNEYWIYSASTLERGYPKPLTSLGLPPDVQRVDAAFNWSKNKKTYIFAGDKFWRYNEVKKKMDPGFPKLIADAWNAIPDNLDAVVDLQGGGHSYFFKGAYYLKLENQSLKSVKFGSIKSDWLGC
Chain of G-protein coupled receptor 55 (Q9Y2T6 whole entry): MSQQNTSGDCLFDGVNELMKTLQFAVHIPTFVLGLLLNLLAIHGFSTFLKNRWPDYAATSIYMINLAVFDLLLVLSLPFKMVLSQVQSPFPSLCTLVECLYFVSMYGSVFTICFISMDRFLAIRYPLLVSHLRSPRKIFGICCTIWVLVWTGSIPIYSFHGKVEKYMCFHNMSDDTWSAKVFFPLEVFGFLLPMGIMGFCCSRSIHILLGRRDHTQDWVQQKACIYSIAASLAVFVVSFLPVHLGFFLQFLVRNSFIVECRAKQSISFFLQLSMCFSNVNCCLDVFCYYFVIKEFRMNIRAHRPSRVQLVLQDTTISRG

NS(=O)(=O)c1ccc(NC(=O)c2ccc([N+](=O)[O-])o2)cc1
IC50 (HEK293 [1]): 71.3 µM (inactive) | IC50 (Jurkat [2]): 17.4 µM (active) | IC50 (HEK293 [3]): 20.5 µM (inactive)

Cc1cccc(-n2nc3c4c(ccc3c2O)C(=O)c2ccccc2C4=O)c1
EC50 (HEK293 [4]): 8.5 µM (active) | IC50 (HEK293 [5]): > 20 µM (inactive) | IC50 (HEK293 [6]): > 20 µM (inactive) | IC50 (HEK293 [7]): > 20 µM (inactive) | EC50 [8]: 114 µM (active) | EC50 [9]: 30 µM (active) | IC50 (Tumor necrosis factor): 16.3 µM (active) | IC50 [10]: 17.1 µM (active) | IC50 [11]: 17.8 µM (active) | IC50 (HEK293 [12]): > 20 µM (inactive)

Cc1ccccc1OCCC(=O)NCCc1ccc(S(N)(=O)=O)cc1
IC50 [13]: > 32 µM (inactive)

Cc1ccccc1Cn1cc(NC(=O)c2nn(C)cc2Cl)cn1
IC50 [14]: > 79.4 µM (inactive) | IC50 [15]: > 79.4 µM (inactive) | IC50 [16]: > 79.4 µM (inactive)

C=CC1=C(C(=O)O)N2C(=O)[C@@H](NC(=O)/C(=N/OCC(=O)O)c3csc(N)n3)[C@H]2SC1
EC50 [17]: < 0.06 µM (active) | EC50 (Streptococcus): < 0.06 µM (active) | AC50 (ORF 73): 34.8 µM (active) | EC50 [18]: 9.93 µM (active) | IC50 [19]: 1.04 µM (active) | IC50 [20]: 0.0764 µM (active) | IC50 (Prothrombin): 68.6 µM (active) | IC50 [21]: 0.5 µM (active) | IC50 [22]: 4.25 µM (active)

CCCCNC(=O)CSCc1nc(-c2ccc(OCC)cc2)oc1C
IC50 (Jurkat [23]): > 80 µM (inactive) | IC50 (HEK293 [24]): 38.8 µM (inactive) | IC50 (HEK293 [1]): 75.3 µM (inactive)

CC(C)(C)c1ccc(O)c(/N=C/c2cc3c(cc2[N+](=O)[O-])OCO3)c1
IC50 [25]: 6.39 µM (active) | IC50 [26]: > 100 µM (inactive) | IC50 [27]: > 100 µM (inactive)

CC(C)CCN(C(=O)C1=COCCO1)c1c(N)n(Cc2ccccc2)c(=O)[nH]c1=O
AC50 [28]: 20.6 µM (active)
